Experimental findings from paper PMC3037030 (Biochimica et biophysica acta, 2010) are described below.

Test [1] has as its target T1, Acsl4 (Rattus norvegicus, UniProt O35547). Nature of the test: radiometric acyl-CoA synthetase assay. Particulars: read-out: Substrate / AA. The format is biochemical.
Test [2] deals with T1, Acsl4. Nature of the test: radiometric acyl-CoA synthetase assay. It is filed as biochemical.
Test [3] concerns the target T1, Acsl4. The format is biochemical.
Test [4] concerns the target T1, Acsl4. Nature of the test: radiometric acyl-CoA synthetase assay, […] inhibition at […]. Particulars: read-out: % inhibition at 10 μM. The format is cell-based.
The target in another test is Acsl3 (Rattus norvegicus, UniProt Q63151). The description is as above. Particulars: read-out: % inhibition at 10 μM. The format is cell-based.

A word on the Ki: it is a measure of affinity in units of concentration, obtained from inhibition or displacement. A high value points to lower affinity. As usually defined, the inhibition is the change of the read-out against control, counted positive when it falls.

Read-outs that look alike come from different tables or passages of the source.

T1 sequence (O35547 whole entry): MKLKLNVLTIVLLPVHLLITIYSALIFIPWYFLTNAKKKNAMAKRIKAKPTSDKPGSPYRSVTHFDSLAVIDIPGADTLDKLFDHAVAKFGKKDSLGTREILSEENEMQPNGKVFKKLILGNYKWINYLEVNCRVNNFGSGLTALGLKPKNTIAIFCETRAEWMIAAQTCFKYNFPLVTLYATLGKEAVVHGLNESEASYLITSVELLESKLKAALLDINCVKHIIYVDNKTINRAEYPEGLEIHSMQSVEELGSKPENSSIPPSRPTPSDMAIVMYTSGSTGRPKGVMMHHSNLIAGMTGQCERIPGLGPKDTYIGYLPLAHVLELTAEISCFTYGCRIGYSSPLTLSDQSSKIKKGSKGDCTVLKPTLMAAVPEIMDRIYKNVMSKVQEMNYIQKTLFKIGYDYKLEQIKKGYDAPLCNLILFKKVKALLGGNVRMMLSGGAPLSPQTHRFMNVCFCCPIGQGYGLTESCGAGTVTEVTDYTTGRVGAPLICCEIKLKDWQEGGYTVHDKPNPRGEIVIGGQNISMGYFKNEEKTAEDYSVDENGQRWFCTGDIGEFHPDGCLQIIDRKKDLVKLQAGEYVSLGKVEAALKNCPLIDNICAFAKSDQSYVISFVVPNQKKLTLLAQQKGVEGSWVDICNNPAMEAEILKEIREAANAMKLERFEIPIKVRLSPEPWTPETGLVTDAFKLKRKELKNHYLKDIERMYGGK
Chain of Acsl3 (Q63151 whole entry): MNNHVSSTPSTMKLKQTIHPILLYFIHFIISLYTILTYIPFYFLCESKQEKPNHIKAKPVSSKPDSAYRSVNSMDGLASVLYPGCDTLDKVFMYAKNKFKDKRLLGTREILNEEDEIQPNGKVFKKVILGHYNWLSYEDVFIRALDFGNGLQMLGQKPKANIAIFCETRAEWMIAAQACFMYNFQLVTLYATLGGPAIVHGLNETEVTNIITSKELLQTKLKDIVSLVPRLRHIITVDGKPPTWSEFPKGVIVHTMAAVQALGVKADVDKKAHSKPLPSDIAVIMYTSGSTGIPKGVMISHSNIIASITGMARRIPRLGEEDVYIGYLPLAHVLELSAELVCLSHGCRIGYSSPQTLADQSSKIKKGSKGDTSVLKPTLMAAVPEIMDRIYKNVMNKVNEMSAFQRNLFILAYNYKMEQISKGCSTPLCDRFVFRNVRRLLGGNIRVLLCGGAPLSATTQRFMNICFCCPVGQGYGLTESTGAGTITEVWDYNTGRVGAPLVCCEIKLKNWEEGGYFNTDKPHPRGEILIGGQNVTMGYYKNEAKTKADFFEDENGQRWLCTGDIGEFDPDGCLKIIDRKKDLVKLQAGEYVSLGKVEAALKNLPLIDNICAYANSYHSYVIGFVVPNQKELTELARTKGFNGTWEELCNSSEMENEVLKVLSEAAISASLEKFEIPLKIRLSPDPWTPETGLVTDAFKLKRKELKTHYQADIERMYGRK

On to `CCCCC/C=C\C/C=C\C/C=C\C/C=C\CCCC(=O)O` [AA, arachidonic acid], for which the Km at Acsl4 [1] is 4.98 ± 1.41 µM.

Regarding `CC/C=C\C/C=C\C/C=C\C/C=C\C/C=C\C/C=C\CCC(=O)O` [DHA, docosahexaenoic acid], the Km at Acsl4 [2] (read-out: Substrate / DHA) worked out at 26.6 ± 3.95 µM.

In turn, `CCCC(CCC)C(=O)O` [VPA, valproate] showed a Ki on Acsl4 [3] of 24.9 ± 2.61 mM.

`CCCCCCCCCCCCCCCC(=O)O` [palmitic acid]: at Acsl4 [2] (read-out: Substrate / Palmitic Acid), the Km was found to be 16.7 ± 6.25 µM.

For `CCC/C=C/C/C=C/C=C/C=N/NN=O` [triacsin C], the inhibition at 10 µM came to 85% on Acsl4 [4] and 90% on Acsl3.
